Patent publication US4271161A, “Indane-acetic acid aminoesters, their preparation and their use in therapy” (Hexachimie, priority 1978, dated 1981)

Tests used:
[1] = system: pain reactions (abdominal writhing) induced by phenylbenzoquinone; experiment: phenylbenzoquinone-induced writhing in mice (analgesic action); type: in vivo, male mice (SPF, strain OF1); settings: for percentage inhibition of pain reactions (abdominal writhing): phenylbenzoquinone i.p. after one hour; for ED50: Mus musculus, po, inhibition of phenylbenzoquinone writhing
Method: The products being tested are administered orally (p.o.) to batches of 12 male mice (SPF, strain OF1), weighing 19-20 g. After one hour, 0.3 ml/mouse of a 0.02% strength solution of phenylbenzoquinone is injected intraperitoneally and the number of pain reactions (abdominal writhing) is counted from the 5th to the 10th minute after the latter treatment. The table below gives the percentage inhibition of these reactions.

[2] = system: mice; experiment: toxicity: mortality after intraperitoneal administration in mice; type: in vivo
Text: In mice, no mortality was observed after intraperitoneal administration up to doses of: […]

Row | SMILES | percentage inhibition of pain reactions (abdominal writhing) ([1]; 1 mg.kg^-1 p.o.) [%] | percentage inhibition of pain reactions (abdominal writhing) ([1]; 2 mg.kg^-1 p.o.) [%] | percentage inhibition of pain reactions (abdominal writhing) ([1]; 4 mg.kg^-1 p.o.) [%] | percentage inhibition of pain reactions (abdominal writhing) ([1]; 8 mg.kg^-1 p.o.) [%] | percentage inhibition of pain reactions (abdominal writhing) ([1]; 16 mg.kg^-1 p.o.) [%] | percentage inhibition of pain reactions (abdominal writhing) ([1]; 32 mg.kg^-1 p.o.) [%] | ED50 [1] [mg/kg] | dose up to which no mortality was observed [2] [mg/kg] | percentage inhibition of pain reactions (abdominal writhing) ([1]; 64 mg.kg^-1 p.o.) [%] | percentage inhibition of pain reactions (abdominal writhing) ([1]; 128 mg.kg^-1 p.o.) [%]
1 | CCC1Cc2ccc(C(C)C(=O)OCCN3CCN(c4cccc(C(F)(F)F)c4)CC3)cc2C1 (stereo not drawn) [2 or 5] | 22 | 47 | 59 | 64 | 65 | 82 | 4 | 512 |  | 
2 | CC(C(=O)OCCN1CCN(c2cccc(C(F)(F)F)c2)CC1)c1ccc2c(c1)CC(C(C)C)C2 (stereo not drawn) [4 or 6] |  |  |  | 23 | 40 | 67 | 25 | 256 | 75 | 75
